# Data: patent publication US20240316007A1, “COMPOSITIONS AND TREATMENTS WITH NIROGACESTAT” (SpringWorks Therapeutics, Inc., priority 0001, published 2024)
# Counter-ions that a name gives are not always drawn.
# Assays:
# [1] = Pharmacokinetic parameters for single and multiple oral doses of nirogacestat dihydrobromide; assay type: in vivo
# From the text: The pharmacokinetic parameters for single and multiple oral doses of nirogacestat dihydrobromide (PF-03084014) are provided in Table 1 below.
# [2] = tested on: progressing desmoid tumors; details: Phase 2 study, participants with progressing desmoid tumors; cited from earlier work
# [3] = Cohort 1: 150 mg, 1 × 150 mg, APERIOD 2, EXDOSE 150, N 10, Geometric Mean
# [4] = Cohort 1: 150 mg, 1 × 150 mg, APERIOD 2, EXDOSE 150, N 10, Max
# [5] = Cohort 1: 150 mg, 1 × 150 mg, APERIOD 2, EXDOSE 150, N 10, Median
# [6] = Cohort 1: 150 mg, 1 × 150 mg, APERIOD 2, EXDOSE 150, N 10, Min
# [7] = Cohort 1: 150 mg, 3 × 50 mg, APERIOD 1, EXDOSE 150, N 10, Max
# [8] = Cohort 1: 150 mg, 3 × 50 mg, APERIOD 1, EXDOSE 150, N 10, Min
# [9] = Cohort 2: 100 mg, APERIOD 1, EXDOSE 100, N 8, Geometric Mean
# [10] = Cohort 2: 100 mg, APERIOD 1, EXDOSE 100, N 8, Max
# [11] = Cohort 2: 100 mg, APERIOD 1, EXDOSE 100, N 8, Median
# [12] = Cohort 2: 100 mg, APERIOD 1, EXDOSE 100, N 8, Min
# [13] = Cohort 3: 50 mg, APERIOD 1, EXDOSE 50.0, N 8, Max
# [14] = Cohort 3: 50 mg, APERIOD 1, EXDOSE 50.0, N 8, Median
# [15] = Cohort 3: 50 mg, APERIOD 1, EXDOSE 50.0, N 8, Min
smiles,measurement,setting,value
"CCC[C@H](N[C@H]1CCc2cc(F)cc(F)c2C1)C(=O)Nc1cn(C(C)(C)CNCC(C)(C)C)cn1 [nirogacestat dihydrobromide, (S)-2-(((S)-6,8-difluoro-1,2,3,4-tetrahydronaphthalen-2-yl)amino)-N-(1-(2-methyl-1-(neopentylamino)propan-2-yl)-1H-imidazol-4-yl)pentanamide]",AUCinf,[1]; [3],3020 ng·h/mL
same,AUClast,[1]; [3],2930 ng·h/mL
same,CL/F,[1]; [3],49.7 L/h
same,Cmax,[1]; [3],686 ng/mL
same,Half-life,[1]; [3],24.7 h
same,AUCinf,[1]; [4],5880 ng·h/mL
same,AUClast,[1]; [4],5720 ng·h/mL
same,CL/F,[1]; [4],82.0 L/h
same,Cmax,[1]; [4],1200 ng/mL
same,Half-life,[1]; [4],34.7 h
same,Tmax,[1]; [4],1.52 h
same,AUCinf,[1]; [5],3100 ng·h/mL
same,AUClast,[1]; [5],3040 ng·h/mL
same,CL/F,[1]; [5],48.4 L/h
same,Tmax,[1]; [5],1.50 h
same,AUCinf,[1]; [6],1830 ng·h/mL
same,AUClast,[1]; [6],1790 ng·h/mL
same,CL/F,[1]; [6],25.5 L/h
same,Cmax,[1]; [6],456 ng/mL
same,Half-life,[1]; [6],13.3 h
same,Tmax,[1]; [6],0.500 h
same,CL/F,"[1]; Cohort 1: 150 mg, 3 × 50 mg, APERIOD 1, EXDOSE 150, N 10, Geometric Mean",49.2 L/h
same,AUCinf,[1]; [7],4870 ng·h/mL
same,AUClast,[1]; [7],4660 ng·h/mL
same,CL/F,[1]; [7],69.5 L/h
same,Cmax,[1]; [7],1120 ng/mL
same,Half-life,[1]; [7],32.0 h
same,Tmax,[1]; [7],2.00 h
same,CL/F,"[1]; Cohort 1: 150 mg, 3 × 50 mg, APERIOD 1, EXDOSE 150, N 10, Median",57.0 L/h
same,AUCinf,[1]; [8],2160 ng·h/mL
same,AUClast,[1]; [8],2080 ng·h/mL
same,CL/F,[1]; [8],30.8 L/h
same,Cmax,[1]; [8],547 ng/mL
same,Half-life,[1]; [8],18.1 h
same,AUCinf,[1]; [9],1780 ng·h/mL
same,AUClast,[1]; [9],1720 ng·h/mL
same,CL/F,[1]; [9],56.1 L/h
same,Cmax,[1]; [9],435 ng/mL
same,Half-life,[1]; [9],25.2 h
same,Tmax,[1]; [9],1.19 h
same,AUCinf,[1]; [10],3940 ng·h/mL
same,AUClast,[1]; [10],3710 ng·h/mL
same,CL/F,[1]; [10],124 L/h
same,Cmax,[1]; [10],654 ng/mL
same,Half-life,[1]; [10],34.6 h
same,Tmax,[1]; [10],2.00 h
same,CL/F,[1]; [11],58.4 L/h
same,Half-life,[1]; [11],24.4 h
same,AUCinf,[1]; [12],805 ng·h/mL
same,AUClast,[1]; [12],777 ng·h/mL
same,CL/F,[1]; [12],25.4 L/h
same,Cmax,[1]; [12],259 ng/mL
same,Half-life,[1]; [12],19.7 h
same,Tmax,[1]; [12],0.500 h
same,CL/F,"[1]; Cohort 3: 50 mg, APERIOD 1, EXDOSE 50.0, N 8, Geometric Mean",87.6 L/h
same,AUCinf,[1]; [13],2140 ng·h/mL
same,AUClast,[1]; [13],2120 ng·h/mL
same,CL/F,[1]; [13],660 L/h
same,Cmax,[1]; [13],507 ng/mL
same,Half-life,[1]; [13],32.8 h
same,Tmax,[1]; [13],1.52 h
same,CL/F,[1]; [14],74.9 L/h
same,Half-life,[1]; [14],23.3 h
same,AUCinf,[1]; [15],75.7 ng·h/mL
same,AUClast,[1]; [15],71.6 ng·h/mL
same,CL/F,[1]; [15],23.4 L/h
same,Cmax,[1]; [15],49.6 ng/mL
same,Half-life,[1]; [15],4.24 h
same,Tmax,[1]; [15],0.500 h
"CCC[C@H](N[C@H]1CCc2cc(F)cc(F)c2C1)C(=O)Nc1cn(C(C)(C)CNCC(C)(C)C)cn1 [nirogacestat, (S)-2-(((S)-6,8-difluoro-1,2,3,4-tetrahydronaphthalen-2-yl)amino)-N-(1-(2-methyl-1-(neopentylamino)propan-2-yl)-1H-imidazol-4-yl)pentanamide]",participants progressing while on therapy,[2],no participants progressing while on therapy
same,response rate,[2],29%
same,tumor shrinkage as measured by magnetic resonance imaging (MRI),[2],significant tumor shrinkage
